Molecules are shown by their SMILES.

The test system of the assay is SARS-CoV-2. Description: CPE inhibition of SARS-CoV-2 in VERO-E6 cells. Type of assay: cell-based. The note with it: 200 TCID50, 3 days, average of three repeats, FIG. 4.

Turning to `CCC(CC)COC(=O)[C@H](C)N[P@](=O)(OC[C@H]1O[C@@](C#N)(c2ccc3c(N)ncnn23)[C@H](O)[C@@H]1O)Oc1ccccc1` [remdesivir], the “average CPE inhibition value” is 8.333 µg/mL.
In the case of `CC(C)C[C@H](NC(=O)OCc1ccccc1)C(=O)N[C@@H](C[C@@H]1CCNC1=O)C(O)S(=O)(=O)[O-].[Na+]` (some centres unmarked) [GC376], the “average CPE inhibition value” worked out at 3.125 µg/mL.

The values above are taken from patent publication US20250177469A1, “SANGUISORBA OFFICINALIS LINNE EXTRACT COMPOSITION INHIBITING 3CL PROTEASE AND RDRP ACTIVITY OF SARS-COV-2” (QGENETICS CO., LTD., priority 2021, published 2025).
